The values below come from patent US20260306476A1, “ANTIBACTERIAL COMPOUND PBT2” (priority 2022, published 2026).

SMILES strings stand for the structures. Values after ≈ are worked out from the molar mass of the structure shown. Where only a bound is given, the exact number is not on record here.

In data set [1] the test system is Neisseria gonorrhoeae. The data set can be described thus: MIC / susceptibility across Neisseria gonorrhoeae strains. It counts as cell-based. The note with it: for MIC: Neisseria gonorrhoeae. The source says: 13 multidrug resistant WHO strains of Neisseria gonorrhoeae were selected to cover antimicrobial resistance phenotypes to all the antibiotics currently used. MS11 is a laboratory strain and ATCC49226 is a CLSI standard MIC control strain (CLSI. 2022. Performance Standards for Antimicrobial Susceptibility Testing, 32nd Edition. Clinical and Laboratory Standards Institute which is hereby incorporated by reference in its entirety). The MICs (minimum inhibitory concentration) of PBT2 alone in the absence of zinc or a further antimicrobial agent against these Neisseria gonorrhoea strains are summarised in Table 1.

Data set [2] relates to non-typeable Haemophilus influenzae (NTHi) 2019. As to the kind of experiment: MIC of PBT2 alone (broth). It is filed as cell-based. How it is done: (§1) The MIC of PBT2 against five non-typeable Haemophilus influenzae (NTHi) strains was determined (CLSI. 2022. Performance Standards for Antimicrobial Susceptibility Testing, 32nd Edition. Clinical and Laboratory Standards Institute).

For data set [3], the system named is non-typeable Haemophilus influenzae (NTHi) 723. The data set can be described thus: MIC of PBT2 alone (broth). It is filed as cell-based. How it is done: as §1
For data set [4], the system named is non-typeable Haemophilus influenzae (NTHi) 86-028NP. The data set can be described thus: MIC of PBT2 alone (broth). It is filed as cell-based. How it is done:
as §1

Data set [5] has as its system non-typeable Haemophilus influenzae (NTHi) ATCC49766. As to the kind of experiment: MIC of PBT2 alone (broth). It is filed as cell-based. The method, then:
as §1

Data set [6] has as its system non-typeable Haemophilus influenzae (NTHi) R2866. The data set can be described thus: MIC of PBT2 alone (broth). It counts as cell-based. How it is done:
as §1

Data set [7] deals with non-typeable Haemophilus influenzae (NTHi). As to the kind of experiment: Sensitivity across NTHi strains. The settings on record: all strains tested. It is filed as cell-based. How it is done: as §1
Data set [8] concerns Campylobacter jejuni. As to the kind of experiment: Sensitivity across Campylobacter jejuni strains. It counts as cell-based. The settings on record: all strains tested. How it is done: The MIC of PBT2 against three Campylobacter jejuni strains was determined. All strains tested were sensitive to PBT2.
Data set [9] deals with Neisseria gonorrhoeae WHO Z. The data set can be described thus: Time-kill assay. It is filed as cell-based. The settings on record: PBT2 alone at 0.313 mg/L (MIC). From the text:
FIG. 1: Time-kill curves of Neisseria gonorrhoeae WHO Z in GC broth with or without PBT2. Error bars indicate standard deviation from 3 biological replicates.

The nature of data set [10]: Plasma drug level of PBT2 in clinical trial (NCT02249728). It is filed as in vivo, human. The note with it: 250 mg/day; MDR Neisseria gonorrhoeae.
For data set [11] the following is noted: cited from earlier work.
The subject of data set [12] is Streptococcus uberis (S. uberis). The note with it: in the absence of an antibiotic; cited from earlier work.
Data set [13] deals with Neisseria meningitidis. As to the kind of experiment: MIC / susceptibility across Neisseria meningitidis strains. The note with it: all strains tested; for MIC: Neisseria meningitidis.

In the case of `CN(C)Cc1ccc2c(Cl)cc(Cl)c(O)c2n1` [PBT2, 5,7-dichloro-2-[(dimethylamino)methyl]quinolin-8-ol], the MIC in [1] (MDR Neisseria gonorrhoeae) was 0.313 µg/mL (≈ 1.15 µM); in data set [1] (all strains tested, agar, PBT2 alone), 0.312 to 0.625 µg/mL (≈ 1.15 to 2.31 µM); in [1] (all strains tested, broth, PBT2 alone), 0.156 to 0.312 µg/mL (≈ 0.575 to 1.15 µM); in [2] it was 2.5 µg/mL; in [3], 1.25 µg/mL; in data set [4] it was 2.5 µg/mL. The MIC in [5] is 0.312 µg/mL; in data set [6], 2.5 µg/mL; in data set [13] (agar), 0.039 to 0.156 µg/mL (≈ 0.144 to 0.575 µM); in data set [13] (broth), 0.156 to 0.625 µg/mL (≈ 0.575 to 2.31 µM). In addition, the susceptibility entry in data set [1] (all strains tested, PBT2 alone) is recorded as “highly susceptible”. For the same molecule, the sensitivity entry in [7], in data set [8] and in data set [13] was “sensitive” throughout. The “time in which antibacterial activity occurred” value in data set [9] is listed as at most 3 h. In data set [10], the “plasma AUC relative to PBT2 MIC (313 ng/ml)” value came to 5 fold. In data set [11] (250 mg daily for up to 12 months, without serious side effects or withdrawal symptoms), the safety and tolerability result was “safe and well-tolerated, without serious side effects or withdrawal symptoms”. Moreover, in data set [11] (data from phase II clinical trials), the safety entry is “safe-for-human-use”. For the same molecule, the antibacterial activity entry in [12] is listed as “neither PBT2 nor zinc alone displayed antibacterial activity which would be suitable to treat an infection”.
